According to patent publication US10500169B2, “Supression of IgE production by compounds derived from traditional chinese medicine” (Sean N. Parker Foundation, priority 2014, dated 2019):
Values after ≈ are worked out from the molar mass of the structure shown.

Key:
U266 cells [1] = experiment: IgE production by U266 myeloma cells, ELISA of supernatants; type: cell-based, human; conditions: for effect on IgE production by U266 cells (in words): different concentrations; for IC50: 6 days culture, read-out: IC50 of inhibition of IgE production by U266 cells
Method: The IgE producing human U266 myeloma cell line (American Type Culture Collection; Rockville, Md.) has been used for screening pharmaceutical agents for IgE inhibitory effects, and thus this cell line was used to test the potential IgE inhibitory effects of herb extracts and purified compounds. Cells were cultured at 37° C. under 5% CO2 in complete media containing RPMI 1640 medium supplemented, 10% FBS, 1 mM sodium pyruvate, 1×10^-5 M β-ME and 0.5% penicillin-streptomycin. Cells were grown at an initial concentration of 2×10^5 cells/mL. FAHF-2 and B-FAHF-2, individual herb extracts and isolated compounds at different concentrations were added at day 0. Supernatants were harvested after 6 days culture, and IgE levels were determined by using an ELISA Kit (Mabtech Inc, OH). In each experiment, we run duplicate ELISA. In vitro experiments were repeated at least 3 times.
Human U266 myeloma cells (American Type Culture Collection; Rockville, Md.) were cultured in complete medium (RPMI 1640 medium supplemented, 10% FBS, 1 mM sodium pyruvate, 1×10^−5 M β-ME and 0.5% penicillin-streptomycin) at 37° C. under 5% CO2. Cells were grown at an initial concentration of 2×10^5 cells/mL with purpurin and alizarin from Rubia cordifolia L. at different concentrations (0.31, 0.62, 1.25, 2.5, 5 μg/mL), and with arctiin and arctigenin from Arctium lappa L. at different concentrations ([…]) for 6 days. The supernatants were harvested on day 6 for total IgE analysis using ELISA.

[2] = tested on: peanut allergic C3H/HeJ mice; experiment: Peanut allergic mouse model, 400 μg of compound intragastrically daily for 4 weeks; type: in vivo; conditions: for body temperature following PN challenge: 30 minutes after oral challenge; for histamine level in plasma: week 15 post therapy challenge
Method: Freshly ground, whole roasted peanuts were homogenized in sterile PBS (Mediatech, VA) until a smooth suspension was obtained. Female C3H/HeJ mice were sensitized intragastrically (i.g.) with ground PN (10 mg/mouse) and cholera toxin (20 μg), on three consecutive days at week 0, and once a week for 5 weeks, and boosted at weeks 6 and 8 with 50 mg/mouse of PN and cholera toxin (20 μg) (FIG. 37A) as previous described^(40). Mice were intragastrically administered with 400 μg of three different active compounds (arctiin and arctigenin from Arctium lappa L., and 1,3-Dihydroxyanthraquinone from Rubia cordifolia L.) daily 24 h after the week 8 boosting and under this treatment for 4 weeks. Eight PN sensitized/boosted mice receiving 0.5 ml of 0.1% DMSO in water twice daily for the same period of treatment time as sham control mice for this experiment.
Anaphylactic symptoms were evaluated 30 min after challenge dose by two investigators using a scoring system described previously: […]; 1, scratching and rubbing around the snout and head; 2, puffiness around the eyes and mouth, pilar erection and reduced activity with an increased respiratory rate; 3, wheezing, labored respiration and cyanosis around the mouth; 4, no activity after prodding, or tremors, and convulsion; 5, death due to anaphylaxis.
To test the IgE inhibition effect of arctiin, arctigenin, and 1,3-dihydroxyanthraquinone in vivo, we treated peanut allergic mice with 400 μg of each active compound daily for four weeks, as shown in FIG. 37A.^(2)

[3] = tested on: peanut sensitized C3H/HeJ Mice; experiment: Peanut allergic mouse model, 1,3-Dihydroxyanthraquinone 200 μg per mouse per day for seven weeks; type: in vivo
Method: FIG. 10 illustrates the in vivo experiment protocol. C3H/HeJ Mice were orally sensitized with 10 mg peanut and […] weekly for 5 weeks as described in methods. At weeks 6, 7 and 8, mice were boosted with 50 mg peanut mixed with cholera toxin. Seven weeks of 1,3-Dihydroxyanthraquinone (200 μg per mouse per day) treatment was started at W6. Mice were challenged with PN at week 13 and again at week 18. Mice were sacrificed 48 hours after last challenge.

peanut allergy subjects = conditions: cited from earlier work
[4] = tested on: peanut-allergic patients with high levels of IgE; conditions: cited from earlier work
U266 cells [5] = experiment: Cell viability of U266 cells, trypan blue exclusion; type: cell-based, human; conditions: at the concentrations tested
Method: Cell viability was evaluated using a trypan blue exclusion as previously described. Briefly, a 10 μl of cells suspension from each culture was mixed with equal volume of trypan blue dye. The mixture was loaded into a hemocytometer and cells were counted under a microscope. The percentage of viable cells was calculated as follows: Viable cells (%)=(total number of viable cells)/(total number of cells)×100.

human PBMCs = experiment: IgE production by PBMCs from food allergic patients stimulated with rIL-4 and anti-CD40 mAb, ELISA; type: cell-based; conditions: Homo sapiens, PBMC, 240 h; 20 μg/mL, 10 days, rIL-4 100 ng/mL + anti-CD40 mAb 1 μg/mL
Method: PBMCs were isolated by Ficoll Hypaque (Pharmacia, Piscataway, N.J.) using density gradient centrifugation at 1800 RPM for 30 minutes, and washed 3 times in PBS. To determine the optimal stimulation of IgE production by PBMCs, PBMCs at 1.5×10^6 cells/mL were suspended in complete RPMI medium (200 μM L-glutamine, 1% penicillin/streptomycin, 25 mM HEPES, 10% heat inactivated fetal calf serum), and co-stimulated with human recombinant IL-4 (rIL-4) at 0.01 and 0.1 μg/mL (R&D Systems, Minneapolis, Minn., USA) and anti-CD40 monoclonal antibody (mAb) at […] (R&D) for 10 and 14 days. At the end of incubation, the supernatants were collected and IgE levels were analyzed using ELISA kit (Mabtech Inc, OH). Since PBMCs stimulated with 100 ng/mL rIL-4 and 1 μg/mL anti-CD40 mAb produced the highest level of IgE, we used this culture condition for the subsequent studies. PBMCs were stimulated with 100 ng/mL rIL-4 and 1 μg/mL anti-CD40 mAb and cultured in the presence or absence of 20 μg/mL of the two purified compounds for 10 days for screening active compounds, and at different concentrations (0.15, 0.31, 0.62, 1.25, 2.5, 5, 10 μg/mL) to examine dose responses for the effective compounds. IgE level was evaluated using ELISA. The percentage of IgE inhibition was calculated as follows: […]. In some cases if enough PBMCs were obtained, aliquots of PBMCs prepared from the same individuals were used for different experiments.

With `COc1cc(C[C@H]2C(=O)OC[C@@H]2Cc2ccc(OC)c(OC)c2)ccc1O` [arctigenin] the “effect on IgE production by U266 cells (in words)” value (shortened to “effect on IgE production”) (U266 cells [1]; 6 days) was “inhibited the IgE production by U266 in dose-dependent manner”, the “protection against acute peanut induced anaphylaxis” value ([2]; 400 μg daily for four weeks) was “protected against the acute anaphylaxis” and the “body temperature following PN challenge” value [2] was “normal body temperatures”. The “histamine level in plasma” value ([2]; vs sham) was “significantly decreased”.
In the case of `O=C1c2ccccc2C(=O)c2c1ccc(O)c2O` [alizarin], the IC50 (U266 cells [1]; Homo sapiens, U-266, 144 h) is reported as 0.762 µg/mL (≈ 3.17 µM) and the “effect on IgE production” value (U266 cells [1]; 6 days) is reported as “inhibited the IgE production in a dose-dependent manner”.
For `O=C1c2ccccc2C(=O)c2c(O)cc(O)cc21` [1,3-Dihydroxyanthraquinone], the “effect on IgE production” value (U266 cells [1]; 6 days) was “dose-dependent inhibition”, the “protection against acute peanut induced anaphylaxis” value ([2]; 400 μg daily for four weeks) was “protected against the acute anaphylaxis” and the “median anaphylactic symptom score” value ([2]; 400 μg daily for four weeks, vs sham) was “significant lower”. The “body temperature following PN challenge” value [2] was “normal body temperatures”, the “histamine level in plasma” value ([2]; vs sham) was “significantly decreased” and the “symptom scores following peanut challenge” value ([3]; vs sham) was “significantly weaker reactions”. For the same compound, the “Peanut-Specific IgE levels” value ([3]; weeks 12 and 16) was “markedly reduced”.
In the case of “omalizumab: anti-IgE antibody (Xolair, Genentech)”, the “peanut tolerability in oral food challenge” value (peanut allergy subjects; post-therapy (24-week), vs placebo) is given as “greater shift in peanut tolerability”, the “serum peanut specific IgE” value (peanut allergy subjects; post-therapy) is given as “reduction of serum peanut specific IgE” and the “subjects tolerating 4000 mg of peanut flour” value ([4]; after 7-12 weeks) is given as “Twelve of thirteen”. For the same compound, the “subjects tolerating a cumulative dose of 992 mg peanut flour” value ([4]; first day) was “All thirteen” and the patients requiring epinephrine ([4]; in vivo) was 2 patients.
For `O=C1c2ccccc2C(=O)c2c(O)c(O)cc(O)c21` [purpurin], the IC50 (U266 cells [1]; Homo sapiens, U-266, 144 h) was 0.353 µg/mL (≈ 1.38 µM) and the “effect on IgE production” value (U266 cells [1]; 6 days) was “inhibited the IgE production in a dose-dependent manner”.
For `COc1ccc(C[C@H]2COC(=O)[C@@H]2Cc2ccc(O[C@@H]3O[C@H](CO)[C@@H](O)[C@H](O)[C@H]3O)c(OC)c2)cc1OC` [arctiin], the “effect on IgE production” value (U266 cells [1]; 6 days) was “inhibited the IgE production by U266 in dose-dependent manner”.
With `CC1(C)O[C@H]2CC(=O)OC[C@]23[C@H]2CC[C@@]4(C)[C@H](c5ccoc5)OC(=O)[C@H]5O[C@]54[C@]2(C)C(=O)C[C@@H]13` [limonin] the “cell viability of U266 cells” value (U266 cells [5]) was “no toxicity”, the inhibition at 20 µg/mL (U266 cells [1]; Homo sapiens, U-266, 144 h, 20 μg/mL, 6 days) was 35.1% and the “effect on IgE production” value (U266 cells [1]; 6 days) was “mild reduction of IgE production”. The inhibition at 20 µg/mL (human PBMCs) was 33.9%.
